According to patent US8486465B1 (priority 2007, dated 2013):

Test system: Human breast cancer MCF-7 cells
Test: Apoptosis of MCF-7 cells by Propidium Iodide technique measured by flow cytometry
Assay type: cell-based
Details: NOE 0
Source text: Cell Culture. […] Levels of apoptosis (cell death) were then examined using the Propidium Iodide technique as measured by flow cytometry using a FACscan (BD Biosciences, San Jose, Calif.). Forward (FSC) and Side scatter (SSC) were used to gate the cells.
(§1) FIGS. 1A, 1C, 1E, and 1G are dot plots which show the populations of cells grown under the particular culture conditions described below, while FIGS. 1B, 1D, 1F, and 1H respectively are the corresponding frequency histograms showing the total population of apoptotic MCF-7 cancer cells for each culture.
as §1, with “2A, 2C, 2E,” for “1A, 1C, 1E,”, “2G” for “1G”, “[…]” for “1B, 1D, 1F,”, “2B, 2D, 2F and 2H” for “1H”

[1] = GSH 5 mM alone, MCF-7, 24 hours (Table 1, Example 2)
[2] = GSH 10 mM alone, MCF-7, 24 hours (Table 2, Example 3)

Q: How did the “% cell death” value [1] turn out when `N[C@@H](CCC(=O)N[C@@H](CS)C(=O)NCC(=O)O)C(=O)O` [GSH, Glutathione] was run?
A: 20%

Q: And the “% cell death relative to control” value [1]?
A: 11%

Q: And the “% cell survival” value [1]?
A: 80%

Q: And the “% cell survival relative to Control” value [1]?
A: 98%

Q: And the “% cell death” value [2]?
A: 10%

Q: What about the “% cell death relative to control” value [2] of the same compound?
A: 96%

Q: What about the “% cell survival” value [2] of the same compound?
A: 90%

Q: What about the “% cell survival relative to Control” value [2] of the same compound?
A: 95%
